Assay results taken from patent US20070015735A1, “Water-dispersible carotenoids, including analogs and derivatives” (priority 2005, published 2007).

Assay type: physicochemical
Settings: 2 h
Procedure: 30.13 mg of 106 was added to 1 mL USP-purified water. The sample was rotated for 2 h and then centrifuged for 5 min. […] A 125 μL aliquot of the solution was then diluted to 25 mL. The sample was analyzed by UV/Vis spectroscopy at 436 nm, and the absorbance was compared to a standard curve compiled from four standards of known concentration. […] Slight error may have been introduced by the small size of the original aliquot. […] The sample was rotated for 2 h and then centrifuged for 5 min. […] A 125 μL aliquot of the solution was then diluted to 25 mL. The sample was analyzed by UV/Vis spectroscopy at 411 nm, and the absorbance was compared to a standard curve compiled from four standards of known concentration. […] Slight error may have been introduced by the small size of the original aliquot.

## β,ε-Carotenyl 3,3′-disuccinate sodium salt [compound 106]
  Aqueous dispersibility (concentration of the original supernatant): 2.85 mg/mL
